Here are results for 32 compounds from patent publication EP4810040A2, “INHIBITORS OF APOL1 AND METHODS OF USING SAME” (priority 2020, dated 2022).

This test has as its target T1, APOL1 G1 (Homo sapiens, UniProt O14791, I384M/S342G).
T1 sequence (O14791 28-398 S342G/I384M): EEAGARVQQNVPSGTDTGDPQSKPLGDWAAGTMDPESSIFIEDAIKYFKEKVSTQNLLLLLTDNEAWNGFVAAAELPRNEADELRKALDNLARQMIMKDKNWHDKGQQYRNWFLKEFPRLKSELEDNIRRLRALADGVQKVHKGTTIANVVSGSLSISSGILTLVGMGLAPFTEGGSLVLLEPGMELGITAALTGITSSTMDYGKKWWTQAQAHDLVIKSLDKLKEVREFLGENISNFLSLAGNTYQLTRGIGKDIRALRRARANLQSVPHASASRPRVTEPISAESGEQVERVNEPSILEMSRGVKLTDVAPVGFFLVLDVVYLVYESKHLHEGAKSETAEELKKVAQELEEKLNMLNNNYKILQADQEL
Briefly: MultiTox-Fluor Multiplex Cytotoxicity Assay, tet-inducible APOL1 G1 T-REx-HEK293 cells. The settings on record: for IC90: read-out: Multi-Tox Assay IC90; for Emax: read-out: Multi-Tox Assay Max Activity (%). In kind it is cell-based. Also noted: expressed in transfected cells; host or cells: T-REx HEK293, clone G1 DC3.25 (pAAVS1-Puro-APOL1 G1). In short, it runs like this:
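Over 24 h at 37 °C, compounds (10-point 3-fold series from 10 µM, duplicate) were co-incubated with 50 ng/mL tetracycline inducing APOL1 G1 in T-REx-HEK293 cells. Viability/cytotoxicity measured by MultiTox-Fluor as dead-to-live fluorescence ratio, expressed as percent of control between uninduced and induced wells and fitted.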

The mark [1] stands for this setting: HEK293, Multi-Tox Assay, APOL1 variant (G0/G1/G2) of the HEK293 cells not given.
[2] abbreviates: Multi-Tox Assay, APOL1 variant not given.
Where [3] appears, read: Multi-Tox Assay, APOL1 variant (G0/G1/G2) not stated in Table 46.
The mark [4] stands for this setting: Multi-Tox Assay, APOL1 variant not stated in Table 46.

SMILES strings stand for the structures. Like-named read-outs stand apart in the source and are kept apart here.

As a reminder, the IC90 is the concentration at which the effect reaches the 90% level. Take `C[C@H]1C[C@@]2(C[C@@H](c3c[nH]nn3)N1)OCCc1cc(Cl)sc12` (racemic) [Compound 72]: the 90% effect concentration (IC90) under setting [1] was below 50 nM. For the same compound, the Emax under setting [2] was 99.7%.
With `Cc1ccc(Cn2cc([C@@H]3C[C@]4(C[C@H](C)N3)OCC(F)(F)c3cc(Cl)sc34)nn2)nc1` [Compound 334], under setting [1], the 90% effect concentration (IC90) is above 500 nM. Further, the “Multi-Tox Assay Max Activity (%)” value under setting [2] turned out to be 96.0%.
The matching figures for `C[C@H]1C[C@@]2(C[C@@H](c3cn(Cc4ccccc4S(C)(=O)=O)nn3)N1)OC[C@@H](O)c1cc(Cl)sc12` [Compound 231]: 50 to 500 nM and 95.0%.
The matching figures for `C[C@H]1C[C@@]2(C[C@@H](c3cn(CC4CCC(=O)NC4)nn3)N1)OC[C@@H](O)c1cc(Cl)sc12` (stereo partly shown) [Compound 254]: above 500 nM and 92.0%.
The matching figures for `C[C@H]1C[C@@]2(C[C@@H](c3cn(Cc4n[nH]c5ccccc45)nn3)N1)OCC(F)(F)c1cc(Cl)sc12` [Compound 349]: above 500 nM and 91.0%.
Turning to `COC(=O)[C@@H]1C[C@]2(C[C@@H](C)N1)OCCc1cc(Cl)sc12` (stereo in doubt) [Compound 209, methyl (2'S,6'R,7S)-2-chloro-6'-methyl-spiro[4,5-dihydrothieno[2,3-c]pyran-7,4'-piperidine]-2'-carboxylate], the concentration for an effect of 90% (IC90) under setting [1] is above 500 nM. In addition, under setting [2], the Emax came out at 76.7%.
As to `CCn1cc(Cn2cc([C@@H]3C[C@]4(C[C@H](C)N3)OCC(F)(F)c3cc(Cl)sc34)nn2)cn1` [Compound 330], the IC90 under setting [1] was 50 to 500 nM.
Turning to `C[C@H]1C[C@@]2(C[C@@H](c3cnn(CCO)c3)N1)OCCc1cc(Cl)sc12` (racemic) [Compound 56], the IC90 under setting [1] is below 50 nM. Further, under setting [2], the “Multi-Tox Assay Max Activity (%)” value was 99.8%.
The matching figures for `C[C@H]1C[C@@]2(C[C@@H](c3cn(Cc4ccc5nc(O)[nH]c5c4)nn3)N1)OC[C@@H](O)c1cc(Cl)sc12` [Compound 249]: above 500 nM and 92.0%.
The matching figures for `C[C@H]1C[C@@]2(C[C@@H](c3cn(CCC#N)nn3)N1)OC[C@@H](O)c1cc(Cl)sc12` [Compound 286]: 50 to 500 nM and 98.0%.
As for `C[C@H]1C[C@@]2(C[C@@H](c3cn(CCC4CCCOC4)nn3)N1)OC[C@@H](O)c1cc(Cl)sc12` (stereo partly shown) [Compound 273], the IC90 under setting [1] is 50 to 500 nM. Moreover, the “Multi-Tox Assay Max Activity (%)” value under setting [2] turned out to be 101.0%.
The matching figures for `Cc1ccnn1CCn1cc([C@@H]2C[C@]3(C[C@H](C)N2)OC[C@@H](O)c2cc(Cl)sc23)nn1` [Compound 274]: 50 to 500 nM and 97.0%.
`[2H]C1([2H])O[C@@]2(C[C@@H](c3cn(C)nn3)N[C@@H](C)C2)c2sc(Cl)cc2[C@]1([2H])O` [Compound 385, (2S,4S,4'S,6S)-2'-chloro-4',5',5'-trideuterio-2-methyl-6-(1-methyltriazol-4-yl)spiro[piperidine-4,7'-thieno[2,3-c]pyran]-4'-ol]: under setting [3], the IC90 is below 50 nM. For the same compound, the Emax under setting [4] worked out at 100%.
For `COc1nccc([C@@H]2C[C@]3(C[C@H](C)N2)OCCc2cc(Cl)sc23)n1` (racemic) [Compound 110], the IC90 under setting [1] lay within 50 to 500 nM. Under setting [2], the “Multi-Tox Assay Max Activity (%)” value was found to be 99.2%.
The matching figures for `Cc1ncc(Cn2cc([C@@H]3C[C@]4(C[C@H](C)N3)OC[C@@H](O)c3cc(Cl)sc34)nn2)cn1` [Compound 277]: 50 to 500 nM and 100.0%.
As to `Cn1cc(C2CC3(CC(C(F)F)N2)OCCc2cc(C(F)(F)F)sc23)nn1` (stereo not shown) [Compound 389, 2'-(difluoromethyl)-6'-(1-methyltriazol-4-yl)-2-(trifluoromethyl)spiro[4,5-dihydrothieno[2,3-c]pyran-7,4'-piperidine]], under setting [3], the IC90 was above 500 nM. Further, the Emax under setting [4] was determined as 99%.
As for `Cc1nnc(Cn2cc([C@@H]3C[C@]4(C[C@H](C)N3)OC[C@@H](O)c3cc(Cl)sc34)nn2)[nH]1` [Compound 272], under setting [1], the IC90 was above 500 nM. Further, the “Multi-Tox Assay Max Activity (%)” value under setting [2] turned out to be 95.0%.
For the compound `Cc1nccn1CCCn1cc([C@@H]2C[C@]3(C[C@H](C)N2)OC[C@@H](O)c2cc(Cl)sc23)nn1` [Compound 251], the IC90 under setting [1] is 50 to 500 nM.
With `Cc1ccnc([C@@H]2C[C@]3(C[C@H](C)N2)OCCc2cc(Cl)sc23)c1` (racemic) [Compound 139], under setting [1], the IC90 was in the range of 50 to 500 nM. For the same compound, the “Multi-Tox Assay Max Activity (%)” value under setting [2] was 98.0%.
Take `Cc1cc(Cn2cc([C@@H]3C[C@]4(C[C@H](C)N3)OC[C@@H](O)c3cc(Cl)sc34)nn2)ccn1` [Compound 296]: under setting [1], the IC90 was in the range of 50 to 500 nM.
`C[C@H]1C[C@@]2(C[C@@H](c3cnc(C(N)=O)cn3)N1)OCCc1cc(Cl)sc12` (racemic) [Compound 63]: the IC90 under setting [1] was below 50 nM. For the same compound, the Emax under setting [2] was 99.8%.
As for `C[C@H]1C[C@@]2(C[C@@H](c3cnn(C4CCOCC4)c3)N1)OCCc1cc(Cl)sc12` (racemic) [Compound 100], under setting [1], the concentration for an effect of 90% (IC90) was below 50 nM. Besides, the “Multi-Tox Assay Max Activity (%)” value under setting [2] is 99.3%.
Take `COc1ccc(Cn2cc([C@@H]3C[C@]4(C[C@H](C)N3)OCC(F)(F)c3cc(Cl)sc34)nn2)cc1` [Compound 335]: the IC90 under setting [1] is above 500 nM. Moreover, under setting [2], the “Multi-Tox Assay Max Activity (%)” value was determined as 96.0%.
In the case of `C[C@H]1C[C@@]2(C[C@@H](c3cn(Cc4ccc(C#N)nc4)nn3)N1)OCC(F)(F)c1cc(Cl)sc12` [Compound 352], under setting [1], the IC90 was 50 to 500 nM.
Take `Cc1cccc(OCC(O)Cn2cc([C@@H]3C[C@]4(C[C@H](C)N3)OC[C@@H](O)c3cc(Cl)sc34)nn2)c1` (stereo partly shown) [Compound 260]: the IC90 under setting [1] was in the range of 50 to 500 nM.
For the compound `C[C@H]1C[C@@]2(C[C@@H](c3ccc(S(N)(=O)=O)cc3F)N1)OCCc1cc(Cl)sc12` (racemic) [Compound 78], the IC90 under setting [1] is below 50 nM. Further, the Emax under setting [2] was 99.7%.
The matching figures for `C[C@H]1C[C@@]2(C[C@@H](c3cnn(CC(=O)N(C)C)c3)N1)OCCc1cc(Cl)sc12` [Compound 18, 2-[4-[(2S, 6S)-2-chloro-6'-methyl-spiro[4,5-dihydrothieno[2,3-c]pyran-7,4'-piperidine]-2'-yl]pyrazol-1-yl]-N,N-dimethyl-acetamide]: below 50 nM and 99.5%.
In the case of `C[C@H]1C[C@@]2(C[C@@H](C3(CO)CC3)N1)OCCc1cc(Cl)sc12` [Compound 380, [1-[(2'S,6'S,7S)-2-chloro-6'-methyl-spiro[4,5-dihydrothieno[2,3-c]pyran-7,4'-piperidine]-2'-yl]cyclopropyl]methanol], the concentration for an effect of 90% (IC90) under setting [3] lay in the range of 50 to 500 nM.
On to `C[C@H]1C[C@@]2(C[C@@H](c3cn(Cc4ccccn4)nn3)N1)OC[C@@H](O)c1cc(Cl)sc12` [Compound 292], for which, under setting [1], the IC90 lay in the range of 50 to 500 nM.
As for `C[C@H]1C[C@@]2(C[C@@H](c3cn(CC4CCS(=O)(=O)C4)nn3)N1)OCC(F)(F)c1cc(Cl)sc12` (stereo partly shown) [Compound 307], under setting [1], the IC90 lay within 50 to 500 nM.
On to `C[C@H]1C[C@@]2(C[C@@H](c3cn(CC4CCOC4)nn3)N1)OC[C@@H](O)c1cc(Cl)sc12` (stereo partly shown) [Compound 269], for which, under setting [1], the IC90 lay in the range of 50 to 500 nM.
For the compound `COc1ccnc([C@@H]2C[C@]3(C[C@H](C)N2)OCCc2cc(Cl)sc23)n1` (racemic) [Compound 145], the IC90 under setting [1] was above 500 nM. Moreover, the “Multi-Tox Assay Max Activity (%)” value under setting [2] was found to be 97.7%.
